Data taken from PMC9546217, “Exploring novel nitrofuranyl sulfonohydrazides as anti‐Leishmania and anti‐cancer agents: Synthesis, in vitro efficacy and hit identification” (Chemical Biology & Drug Design, 2022).
Like-named read-outs stand apart in the source and are kept apart here.

What was measured:
in vitro = settings: African green monkey
Procedure: (§1) The assay method is available in the Supinfo S1.
(§2) African green monkey kidney epithelial (Vero) cells (Cellonex, South Africa) were cultured and the basal cytotoxicity of the synthesized compounds with antileishmanial and/or anticancer activity was evaluated using the resazurin assay, as described in Mangwegape et al. ^4 Emetine served as the standard cytotoxic drug. Further use of reference drugs, controls, data analysis, calculations and IC50 determinations were identical to that of the antileishmanial assay.

[1] = tested on: L. major strain IR‐173 amastigotes; assay: Anti-amastigote assay (intramacrophage, THP-1 host, resazurin); assay type: cell-based; settings: for IC50: read-out: Antileishmanial activity, IC50 ± SD, Amastigote
Procedure: (§3) The activities of synthesized compounds against the intramacrophage parasites of the three Leishmania strains were evaluated using a modified, resazurin‐based method (Jain et al., [2012]; Njanpa et al., [2021]). Suspension cultures of human acute monocytic leukemia (THP‐1) cells were maintained in RPMI‐1640 medium (Sigma Aldrich) supplemented with 10% FBS and 1% penicillin–streptomycin, at 37°C and 5% CO2 in a humidified atmosphere. Duplicate 96‐well plates (for respective anti‐amastigote and cytotoxicity assays) were seeded with 200 μl of a 2.5 × 10^5 cells/ml suspension treated with 25 ng/ml phorbol 12‐myristate 13‐acetate (PMA), followed by 48‐h incubation to promote differentiation into adherent macrophages.
(§4) For the anti‐amastigote assay, differentiated plates were carefully washed with PBS, followed by the addition of 200 μl of stationary phase promastigotes in RPMI 1640 medium with 2% FBS. An MOI of 30:1 was used for all three Leishmania strains. The parasite‐treated plates were incubated for 24 h at 32°C (L. major) or 37°C (L. donovani) and 5% CO2 to promote infection of the macrophages. […] Blanks were represented by growth medium without cells, as well as parasite‐free THP‐1 cells. The treated plates were incubated for 72 h.
(§5) After incubation, the plates were gently washed three times with PBS to remove any remaining extracellular parasites. The wells were then treated with 20 μl of 0.05% sodium dodecyl sulfate in PBS for 30 s to lyse the host macrophages. Lysis was terminated by adding 180 μl promastigote growth medium with 10% FBS. To initiate the resazurin assay, 10 μl of resazurin solution (0.025% in PBS) was added to all wells and the plates were incubated for 24 h at 32°C (L. major) or 37°C (L. donovani) and 5% CO2. Absorbance measurements, calculations, and IC50 determinations were performed as described for the antipromastigote assay (Supinfo S1).

[2] = tested on: L. donovani strain 9515 amastigotes; assay: as above; assay type: cell-based; settings: for IC50: L. donovani 9515, read-out: 9515 IC50 ± SD, Amastigote
Procedure: as §3, §4, §5

[3] = tested on: L. donovani strain 1S amastigotes; assay: as above; assay type: cell-based; settings: for IC50: L. donovani 1S, read-out: 1S IC50 ± SD, Amastigote
Procedure: as §3, §4, §5

[4] = tested on: L. major strain IR‐173 promastigotes; assay: Antipromastigote assay (resazurin); assay type: cell-based; settings: L. major IR‐173, read-out: Antileishmanial activity, IC50 ± SD, Promastigote
Procedure: (§6) The antipromastigote activity of synthesized compounds was evaluated as described previously by Mangwegape et al. ([2021]) using three strains of L. donovani (1S (MHOM/SD/62/1S) and 9515 (MHOM/IN/95/9515)) and L. major (IR‐173 [MHOM/IR/−173]). The assay method is available in the Supinfo S1.
(§7) The antipromastigote activity of synthesized compounds was evaluated using a modified, resazurin-based method of Kulshrestha et al. ^2 and Siqueira-Neto et al. ^3 and on three Leishmania strains. Leishmania donovani (strains 1S (MHOM/SD/62/1S) and 9515 (MHOM/IN/95/9515)) and L. major (strain IR-173 (MHOM/IR/-173)) promastigotes were cultured in M199 with Hank's salts and 0.68 mM L-glutamine (Sigma Aldrich) supplemented with 50 U/mL Penicillin/Streptomycin solution (Lonza), 4.2 mM sodium bicarbonate, 25 mM Hepes, 10% fetal bovine serum, 0.25% hemin, 0.1% biotin, and 10 mM adenine (Sigma Aldrich) and the pH adjusted to 7.3 – 7.4. The promastigotes were maintained at 25 °C.
(§8) Amphothericin B (10 μM) served as the standard drug and growth medium without parasites served as the blank. The plates were incubated for 48 hours at 25 °C in humidified atmosphere. After incubation, 50 μL of resazurin solution (0.01% in PBS) was added to each well and the plates were further incubated at 25 °C in the dark for 24 hours. Absorbance was measured at 570 nm and 600 nm using the Thermofisher Scientific GO Multiscan plate reader. Data analysis was performed for each biological replicate using SkanIt 4.0 Research Edition software. Background absorbance of resazurin (600 nm) was subtracted from the absorbance values of resorufin (570 nm). The mean absorbance calculated and the percentage growth inhibition and cell viability were determined by the following equations: […]
(§9) The IC50 and Z-score were determined for each compound’s three biological replicates using the cell viability % values and GraphPad Prism 5. The mean IC50 of the biological replicates with standard deviation (SD) served as the final IC50 of each compound.

[5] = tested on: L. donovani strain 1S promastigotes; assay: Antipromastigote assay (resazurin); assay type: cell-based; settings: L. donovani 1S, read-out: 1S IC50 ± SD, Promastigote
Procedure: as §6, §7, §8, §9

Vero cells = assay: Basal cytotoxicity, resazurin assay; settings: read-out: Cytotoxicity, IC50 ± SD, Vero; Vero cells
Procedure: as §1, §2

[6] = tested on: L. donovani strain 9515 promastigotes; assay: Antipromastigote assay (resazurin); assay type: cell-based; settings: L. donovani 9515, read-out: 9515 IC50 ± SD, Promastigote
Procedure: as §6, §7, §8, §9

[7] = Cytotoxicity on differentiated host THP-1 macrophages, resazurin assay; assay type: cell-based, human; settings: human, PMA-differentiated THP-1 macrophages, read-out: Cytotoxicity, IC50 ± SD, THP‐1
Procedure: Duplicate 96‐well plates (for respective anti‐amastigote and cytotoxicity assays) were seeded with 200 μl of a 2.5 × 10^5 cells/ml suspension treated with 25 ng/ml phorbol 12‐myristate 13‐acetate (PMA), followed by 48‐h incubation to promote differentiation into adherent macrophages.
Cytotoxicity of the compounds on the differentiated host THP-1 cells were also evaluated. As mentioned, duplicate plates of differentiated THP-1 cells were prepared during the anti-amastigote assay. These plates were incubated for 72 hours to differentiate, instead of replacing the growth medium with parasite-containing medium after 48 hours. […] Blanks were growth medium without cells. The treated plates were incubated for 72 hours, followed by the addition of 50 μL of resazurin solution (0.01% in PBS) to each well and 24-hour incubation.

[8] = tested on: Clone 15 HL‐60 promyelocytic leukemia cells; assay: Anticancer assay (resazurin); assay type: cell-based, human; settings: n = 3; read-out: Anticancer activity, IC50 ± SD, Clone 15 HL‐60
Procedure: (§10) The anticancer activities of synthesized compounds were evaluated using a resazurin‐based assay (Czekanska, [2011]). Accordingly, a screening method similar to that of the cytotoxicity assay was used to screen for anticancer activity, using human melanoma (A375), promyelocytic leukemia (Clone 15 HL‐60), lung cancer (A549), and breast cancer (MCF7) cells. The culture and assay methods are provided in the Supinfo S1.
(§11) The potential anticancer activities of synthesized compounds were screened using the resazurin assay. ^5 Breast adenocarcinoma (MCF7, ATCC® HTB-22™) and human melanoma (A375, ATCC® CRL-1619™) cells were cultured in Hyclone Dulbecco's modified Eagle’s medium with high glucose (Separations) supplemented with 10 % fetal bovine serum (FBS) (Thermofisher Scientific) and 1 % L-glutamine, penicillin-streptomycin and non-essential amino acids (Lonza). Human lung carcinoma (A549, ATCC®, CCL-185™) cells were cultured in Ham’s F12K medium supplemented with 10% FBS and 1% L-glutamine, penicillin-streptomycin and non-essential amino acids. Human promyelocytic leukemia (Clone 15 HL-60, ATCC® CRL-1946™) cells were cultured in RPMI-1640 medium (Sigma Aldrich) supplemented with 10% FBS and 1% penicillin-streptomycin. The cell lines were maintained in a humidified atmosphere at 37 °C and 5% CO2.
(§12) For the resazurin assay, 96 well plates were prepared with 100 μL of 100 000 cells/mL MCF7 cell suspension, 100 μL of 50 000 cells/mL A375 cell suspension, 100 μL of 25 000 cells/mL A549 cell suspension, or 50 μL of 50 000 cells/mL HL-60 cell suspension. The MCF7, A375 and A549 cell plates were incubated for 24 hours to allow adherence of the cells to the plate surface, after which the growth medium is replaced with 100 μL medium containing compounds. […] The cell lines were treated with: (i) parthenolide (Sigma Aldrich) (positive control); (ii) growth medium and solvent (negative control to compensate for possible solvent effects); (iii) growth medium and experimental compound solutions. […] Blanks contained growth medium without cells. The treated plates were incubated for 48 hours.
(§13) To initiate the resazurin assay, 50 μL of sterile-filtered resazurin sodium salt (Sigma Aldrich) solution (0.01 % in PBS) was added and the plates incubated for 2 hours (MCF7, A375 and A549 cells) or 24 hours (HL-60 cells). Absorbance was measured at 570 and 600 nm using the Thermofisher Scientific GO Multiscan plate reader. Data analysis was performed for each biological replicate using SkanIt 4.0 Research Edition software. Further data analysis, calculations and IC50 determinations were identical to that of the antileishmanial and cytotoxicity assays.
(§14) For the final IC50 of each compound, the mean IC50 of the biological replicates were calculated with standard deviation (SD).

A375 melanoma cells = assay: Anticancer assay (resazurin); assay type: cell-based, human; settings: n = 3; read-out: Anticancer activity, IC50 ± SD, A375
Procedure: as §10, §11, §12, §13, §14

What does the source list for `C[C@@H]1[C@H](O)[C@@H](C)/C=C/C=C/C=C/C=C/C=C/C=C/C=C/[C@H](O[C@@H]2O[C@H](C)[C@@H](O)[C@H](N)[C@@H]2O)C[C@@H]2O[C@](O)(C[C@@H](O)C[C@@H](O)[C@H](O)CC[C@@H](O)C[C@@H](O)CC(=O)O[C@H]1C)C[C@H](O)[C@H]2C(=O)O` [AMB, Amphotericin B, reference compound]?
IC50 (in vitro): 57800 ± 3220 nM; IC50 ([1]; Leishmania major, THP-1, L. major IR‐173): 30 nM; IC50 ([2]; Leishmania donovani, THP-1): 50 nM; IC50 ([3]; Leishmania donovani, THP-1): 40 nM; IC50 ([4]; Leishmania major): 30 ± 6 nM; IC50 ([5]; Leishmania donovani): 20 nM

Which IC50 (Vero cells) does the source give for `CC[C@H]1CN2CCc3cc(OC)c(OC)cc3[C@@H]2C[C@@H]1C[C@H]1NCCc2cc(OC)c(OC)cc21` [EM, emetine, reference compound] here?
Its IC50 is 80 ± 9 nM.

Which IC50 (in vitro; Vero cells (kidney epithelial)) does the source give for `NC(=O)N/N=C/c1ccc([N+](=O)[O-])o1` [NFZ, nitrofurazone, reference compound] here?
Its IC50 is > 100000 nM.

What about the “Specificity index SpI1” value ([1]; L. major IR‐173: IC50 promastigote/IC50 amastigote) of the same compound?
The value was 0.32.

And the “Selectivity index SI6” value ([2]; L. donovani 9515: IC50 THP‐1/IC50 amastigote)?
The value was > 20.

And the “Selectivity index SI5” value ([2]; L. donovani 9515: IC50 Vero/IC50 amastigote)?
Its value is > 20.

What about the “Specificity index SpI3” value ([2]; L. donovani 9515: IC50 promastigote/IC50 amastigote) of the same compound?
The value was 0.37.

What about the “Selectivity index SI4” value ([3]; L. donovani 1S: IC50 THP‐1/IC50 amastigote) of the same compound?
Its value is > 40.

And the “Selectivity index SI3” value ([3]; L. donovani 1S: IC50 Vero/IC50 amastigote)?
Its value is > 40.

And the “Specificity index SpI2” value ([3]; L. donovani 1S: IC50 promastigote/IC50 amastigote)?
Its value is 2.62.

What about the IC50 ([3]; Leishmania donovani, THP-1) of the same compound?
Its IC50 is 2500 ± 400 nM.

What about the IC50 ([6]; Leishmania donovani) of the same compound?
The IC50 was 1850 ± 140 nM.

What about the IC50 ([4]; Leishmania major) of the same compound?
Its IC50 is 1850 ± 60 nM.

What about the IC50 ([5]; Leishmania donovani) of the same compound?
Its IC50 is 6540 ± 930 nM.

And the IC50 at 72 h [7]?
The IC50 at 72 h was > 100000 nM.

With “(E)-4-Fluoro-N'-([5-nitrofuran-2-yl]methylene)-(1,1'-biphenyl)-4-sulfonohydrazide [2i]” as the compound, how does the IC50 (Vero cells) read?
Its IC50 is 29200 ± 5410 nM.

What about the IC50 ([1]; L. major IR‐173) of the same compound?
The IC50 was > 10000 nM.

And the IC50 [2]?
The IC50 was > 10000 nM.

What about the IC50 [3] of the same compound?
The IC50 was > 10000 nM.

And the IC50 [6]?
The IC50 was > 10000 nM.

What about the IC50 [4] of the same compound?
The IC50 was > 10000 nM.

What about the IC50 [5] of the same compound?
The IC50 was 9380 ± 820 nM.

And the IC50 [8]?
The IC50 was > 10000 nM.

And the IC50 (A375 melanoma cells)?
The IC50 was > 10000 nM.
